pIC50: −log10 of the molar value.
biological target: T1, Recombinant human renin (Homo sapiens, UniProt P00797); assay: Inhibitory activity against human renin (fluorogenic peptide substrate); assay type: biochemical; conditions: 37° C. for 1 hour, read-out: IC50
T1 sequence (P00797 67-406): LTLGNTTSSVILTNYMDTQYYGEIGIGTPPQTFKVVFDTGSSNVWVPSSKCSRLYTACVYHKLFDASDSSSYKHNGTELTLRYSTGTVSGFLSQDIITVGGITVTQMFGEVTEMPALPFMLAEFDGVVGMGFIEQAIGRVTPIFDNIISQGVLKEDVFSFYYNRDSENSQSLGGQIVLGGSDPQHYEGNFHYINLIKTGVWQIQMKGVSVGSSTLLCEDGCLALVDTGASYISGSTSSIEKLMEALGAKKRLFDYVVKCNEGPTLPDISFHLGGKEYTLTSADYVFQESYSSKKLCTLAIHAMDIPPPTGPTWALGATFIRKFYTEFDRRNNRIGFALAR
Protocol: Inhibitory Activity Against Human Renin
A substrate of synthetic peptide (Nma-KHPFH LVIHK(Dnp)-NH2) and test compound were mixed, and fluorescence intensity was assayed using a fluorophotometer before starting an enzymatic reaction (exciting wavelength: 340 nm, measuring wavelength: 460 nm). Recombinant human renin was added and the mixture was incubated at 37° C. for 1 hour, and the fluorescence intensity was measured after the reaction using a fluorophotometer (exciting wavelength: 340 nm, measuring wavelength: 460 nm).

Row | pIC50 | SMILES
1 | 9.52 | COC[C@@H]1CNC[C@H](C(=O)N(C2CC2)[C@H](C)c2nn(CCCNC(=O)OC)c3nc(C)ccc23)O1 [Example 1, methyl (3-{3-[(1R)-1-(cyclopropyl{[(2R,6S)-6-(methoxymethyl)morpholin-2-yl]carbonyl}amino)ethyl]-6-methyl-1H-pyrazolo[3,4-b]pyridin-1-yl}propyl)carbamate]
2 | 8.70 | CCc1cc([C@@H](C)N(C(=O)[C@H]2CNCCO2)C2CC2)cc(CCCCOC)n1 [Example 112]
3 | 8.24 | COCCCCn1cc([C@@H](C)N(C(=O)[C@H]2CNCCO2)C2CC2)c2nccnc21 [Example 80]
4 | 8.85 | COCCCn1cc(C(C)C)c2cnc([C@@H](C)N(C(=O)[C@H]3CNCCO3)C3CC3)nc21 [Example 73]
5 | 9.10 | COC(=O)NCCCn1nc([C@@H](C)N(C(=O)[C@H]2CNCCO2)C2CC2)c2ccc(C(C)C)nc21 [Example 90]
6 | 9.00 | CCc1ccc2c([C@@H](C)N(C(=O)[C@H]3CNCCO3)C3CC3)nn(CCCNC(=O)OC)c2n1 [Example 89]
7 | 9.15 | COCCCCn1cc([C@@H](C)N(C(=O)[C@H]2CNCCO2)C2CC2)c2ncc(OC)cc21 [Example 40]
8 | 9.40 | CCc1cnc2c([C@@H](C)N(C(=O)[C@H]3CNCCO3)C3CC3)cn(CCCCOC)c2c1 [Example 35]
9 | 8.09 | COC(=O)NCCOc1cc([C@@H](C)N(C(=O)[C@H]2CNCCO2)C2CC2)nc2c1CCCC2 [Example 104]
10 | 9.30 | COC(=O)NCCCn1cc([C@@H](C)N(C(=O)[C@H]2CNCCO2)C2CC2)c2nccc(C)c21 [Example 42]

same assay, conditions: 50% inhibitory concentration (IC50) against human renin, 37° C. for 1 hour

Row | pIC50 | SMILES
11 | 8.89 | COC(=O)NCCCc1cc([C@@H](C)N(C(=O)[C@H]2CNCCO2)C2CC2)cc(C2CC2)n1 [Example 129]
12 | 8.89 | COC(=O)NC/C=C/c1cc([C@@H](C)N(C(=O)[C@H]2CNC[C@@H](C)O2)C2CC2)nn1-c1cccc(Cl)c1 [Example 346]
13 | 8.21 | COC(=O)NCCCc1cc([C@@H](C)N(C(=O)[C@H]2CNCCO2)C2CC2)sc1Cc1nnn[nH]1 [Example 272]
14 | 8.52 | COC[C@H]1CO[C@@H](C(=O)N(C2CC2)[C@H](C)c2cc(CCCNC(=O)OC)nc(OC)c2)CN1 [Example 271]
15 | 8.64 | COC(=O)NCCCc1nc([C@@H](C)N(C(=O)[C@H]2CNCCO2)C2CC2)sc1-c1cccc(F)c1 [Example 400]
16 | 8.77 | COC[C@@H]1CNC[C@H](C(=O)N(C2CC2)[C@H](C)c2nc(CCCNC(=O)OC)n(-c3cccc(Cl)c3)n2)O1 [Example 381]
17 | 9.40 | COC(=O)NCCCc1cc([C@@H](C)N(C(=O)[C@H]2CNC[C@@H](C)O2)C2CC2)nn1-c1cccc(C)c1 [Example 344]
18 | 9.15 | COC(=O)NCCCc1cc([C@@H](C)N(C(=O)[C@H]2CNC[C@@H](C)O2)C2CC2)nn1-c1cccc(F)c1F [Example 347]
19 | 8.29 | Cc1nc([C@@H](C)N(C(=O)[C@H]2CNCCO2)C2CC2)cc2c1ccn2Cc1ccccc1 [Example 148]
20 | 8.30 | COC(=O)NCCCc1nc([C@@H](C)N(C(=O)[C@H]2CNCCO2)C2CC2)cnc1O[C@H]1CCOC1 [Example 424]
21 | 9.52 | COC(=O)NCCCn1cc([C@@H](C)N(C(=O)[C@H]2CNCCO2)C2CC2)nc1-c1ccccc1 [Example 136]
22 | 8.44 | COc1cccc(Cn2cc([C@@H](C)N(C(=O)[C@H]3CNCCO3)C3CC3)nc2-c2ccccc2)c1 [Example 195]
23 | 8.28 | COC(=O)NCCCc1nc(C(C)N(C(=O)[C@H]2CNCCO2)C2CC2)c(C)n1-c1ccccc1 (stereo partly shown) [Example 343]
24 | 9.40 | COC(=O)NCCCc1cc([C@@H](C)N(C(=O)[C@H]2CNCCO2)C2CC2)sc1-c1ccccc1CNS(=O)(=O)CC(F)(F)F [Example 286]
25 | 9.52 | COC(=O)NCCCn1nc([C@@H](C)N(C(=O)[C@H]2CNCCO2)C2CC2)cc1-c1ccc(F)cc1 [Example 158]
26 | 9.15 | COC(=O)NCCCc1cc([C@@H](C)N(C(=O)[C@H]2CNCCO2)C2CC2)nc2ccc(C)cc12 [Example 144]
27 | 9.00 | COC(=O)NCCCc1cc([C@@H](C)N(C(=O)[C@H]2CN[C@@H](C)CO2)C2CC2)nn1-c1ccc(F)cc1 [Example 371]
28 | 9.15 | CCOC[C@@H]1CNC[C@H](C(=O)N(C2CC2)[C@@H](C)c2nn(CCCNC(=O)OC)c3nc(C)ccc23)O1 [Example 312]
29 | 8.52 | COC(=O)NCCCc1nc([C@@H](C)N(C(=O)[C@H]2CNCCO2)C2CC2)sc1-c1cncnc1 [Example 416]
30 | 8.29 | CCOc1ncc(C(C)N(C(=O)[C@H]2CNC[C@@H](COC)O2)C2CC2)nc1CCCNC(=O)OC (stereo partly shown) [Example 398]

Row | pIC50 | SMILES
31 | 9.05 | COC[C@H]1CO[C@@H](C(=O)N(C2CC2)[C@H](C)c2cc(CCCNC(=O)OC)n(-c3ccccc3)n2)CN1 [Example 283]
32 | 8.47 | COC(=O)NCCCc1sc(C(C)N(C(=O)[C@H]2CNCCO2)C2CC2)cc1-c1ccccc1F (stereo partly shown) [Example 406]
33 | 9.30 | CCOc1cc([C@@H](C)N(C(=O)[C@H]2CNCCO2)C2CC2)cc(CCCNC(=O)OC)n1 [Example 237]
34 | 9.05 | COC(=O)NCCCn1nc([C@@H](C)N(C(=O)[C@H]2CNCCO2)C2CC2)nc1-c1ccccc1C [Example 248]
35 | 9.52 | COC[C@@H]1CNC[C@H](C(=O)N(C2CC2)[C@@H](C)c2nn(CCCNC(=O)OC)c(C3CCOCC3)c2F)O1 [Example 330]
36 | 9.40 | COC(=O)NCCCn1nc([C@@H](C)N(C(=O)[C@H]2CNCCO2)C2CC2)cc1-c1cccc(C)n1 [Example 176]
37 | 9.40 | COC(=O)NCCCn1nc([C@@H](C)N(C(=O)[C@H]2CNCCO2)C2CC2)cc1-c1cccc(F)c1 [Example 172]
38 | 9.40 | CCOC[C@@H]1CNC[C@H](C(=O)N(C2CC2)[C@@H](C)c2cc(CCCNC(=O)OC)nc(OC)c2)O1 [Example 311]
39 | 9.30 | COC(=O)NCCCc1cc([C@@H](C)N(C(=O)[C@H]2CNCCO2)C2CC2)nc2ccc(OC)cc12 [Example 141]
40 | 9.70 | COC(=O)NCCCc1cc([C@@H](C)N(C(=O)[C@H]2CNCCO2)C2CC2)sc1-c1cnn(C)c1 [Example 240]
41 | 8.54 | COC[C@H]1CO[C@@H](C(=O)N(C2CC2)[C@@H](C)c2nn(CCCNC(=O)OC)c(C3CCOCC3)c2C)CN1 [Example 327]
42 | 9.10 | CCOc1ncc([C@@H](C)N(C(=O)[C@H]2CNCCO2)C2CC2)cc1CCCNC(=O)OC [Example 251]
43 | 9.30 | COC(=O)NCCCc1cc([C@@H](C)N(C(=O)[C@H]2CNCCO2)C2CC2)cc2cccnc12 [Example 145]
44 | 9.52 | COC(=O)NCCCn1cc([C@H](C)N(C(=O)[C@H]2CNC[C@@H](C)O2)C2CC2)nc1C1CCCCC1 [Example 333]
45 | 8.92 | COC(=O)NCCCn1nc([C@@H](C)N(C(=O)[C@H]2CNCCO2)C2CC2)c2c1CCC2 [Example 190]
46 | 8.82 | COC[C@H]1CO[C@@H](C(=O)N(C2CC2)[C@@H](C)c2cn(CCCNC(=O)OC)c(C3CCOCC3)n2)CN1 [Example 322]
47 | 8.70 | COC(=O)NCCCc1sc(C(C)N(C(=O)[C@H]2CNCCO2)C2CC2)cc1-c1ccnn1C (stereo partly shown) [Example 429]
48 | 9.52 | COC(=O)NCCCn1nc([C@@H](C)N(C(=O)[C@H]2CNCCO2)C2CC2)cc1-c1ccccc1F [Example 173]
49 | 9.10 | COCCCCc1cc([C@@H](C)N(C(=O)[C@H]2CNCCO2)C2CC2)nc2c1CCCC2 [Example 123]

Reference: patent US9556159B2, “Renin inhibitor” (MITSUBISHI TANABE PHARMA CORPORATION, priority 2012, dated 2017)
